In assay [1] the test system is SOCE (store operated calcium entry) in CHO cells. The assay is described as follows: Assay of SOCE (store operated calcium entry)-inhibiting action. Type of assay: cell-based, Chinese hamster. The conditions noted are these: Cricetulus griseus, CHO; for inhibition at 10 µM: test compound 10 μmol; for inhibition at 10 µM / inhibition at 30 µM / inhibition at 100 µM: CHO cells, thapsigargin, read-out: SOCE level (percentage of inhibition); for inhibition at 30 µM: test compound 30 μmol; for inhibition at 100 µM: test compound 100 μmol; for IC50: Table 1. An outline of the steps:
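CHO cells in calcium-free BSS received compound, then 1 μM thapsigargin 2 min later to deplete stores; after 9 min, 2 mM calcium chloride (final) added. Percent inhibition of the rise in intracellular calcium determined at various compound concentrations.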

For assay [2], the system named is IICR (IP3 induced calcium release) in CHO cells. The experiment in a line: Assay of IICR (IP3 induced calcium release)-inhibiting action. Type of assay: cell-based, Chinese hamster. As to conditions: for inhibition at 10 µM / inhibition at 30 µM / inhibition at 100 µM / IC50: Cricetulus griseus, CHO; for inhibition at 10 µM / inhibition at 30 µM / inhibition at 100 µM / IICR level (percentage of inhibition): CHO cells, 10 μM ATP; for inhibition at 10 µM / inhibition at 30 µM / inhibition at 100 µM: read-out: IICR level (percentage of inhibition); for IC50: Table 1. An outline of the steps:
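CHO cell medium replaced with calcium-containing BSS; compound added 1 min later, then 10 μM ATP after a further 2 min. Percent inhibition of the ATP-evoked rise in intracellular calcium determined at each compound concentration.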

For orientation: inhibition means how much of the control response was suppressed. By IC50 is commonly meant the point on the concentration scale where inhibition reaches its midpoint.

With `Cc1ccc(C(=O)CCN(Cc2ccccc2)C(C)C)o1` [Example 136], the inhibition at 10 µM in assay [1] worked out at 0%; in assay [2] (test compound 10 μmol), 50%. Besides, the inhibition at 30 µM in assay [1] is 0%; in assay [2] (test compound 30 μmol), 60%. Besides, the inhibition at 100 µM turned out to be 20% in assay [1] and 80% in assay [2] (test compound 100 μmol).

Regarding `O=C(CCN(CCO)CCO)c1ccc(Cl)s1` [Example 277, 2-bis(N-2-hydroxyethyl)aminoethyl-5-chloro-2-thienylketone], the inhibition at 30 µM in assay [1] and in assay [2] (test compound 30 μmol) was 0% in each case. Besides, the inhibition at 100 µM was determined as 0% in assay [1] and 20% in assay [2] (test compound 100 μmol). Also, the inhibition at 10 µM in assay [2] (test compound 10 μmol) is 0%.

Regarding `Cc1csc(C(=O)CCN(Cc2ccccc2)C(C)C)c1` [Example 321, 2-(N-benzylisopropyl)aminoethyl-4-methyl-2-thienylketone], the inhibition at 10 µM in assay [1] stood at 0%; in assay [2] (test compound 10 μmol) it was 20%. Further, the figures for the inhibition at 30 µM in assay [1] and in assay [2] (test compound 30 μmol) were 0% and 70%, respectively. Besides, the inhibition at 100 µM in assay [1] came to 0%; in assay [2] (test compound 100 μmol), 100%.

Regarding `COC(=O)C(CSSCC(NCCC(=O)c1ccc2c(c1)Cc1ccccc1-2)C(=O)OC)NCCC(=O)c1ccc2c(c1)Cc1ccccc1-2` (stereo not shown) [Example 404], the values for the inhibition at 10 µM in assay [1] and in assay [2] (test compound 10 μmol) were 20% and 54%, respectively. The inhibition at 30 µM in assay [1] came to 40%; in assay [2] (test compound 30 μmol), 84%. Besides, the inhibition at 100 µM was found to be 50% in assay [1] and 94% in assay [2] (test compound 100 μmol).

In the case of `CCN(CCC(=O)c1cnccn1)Cc1ccccc1` [Example 111, 2-(N-ethylbenzyl)aminoethyl-2-pyrazinylketone], the inhibition at 10 µM in assay [1] came out at 0%; in assay [2] (test compound 10 μmol), 30%. Further, the inhibition at 30 µM in assay [1] came out at 0%; in assay [2] (test compound 30 μmol), 80%. Also, the results for the inhibition at 100 µM in assay [1] and in assay [2] (test compound 100 μmol) were 0% and 95%, respectively.

For the compound `CC(C)N(CCO)CCCC(=O)c1ccccc1` [Example 178, 3-(N-isopropylhydroxyethyl)aminopropylphenylketone], in assay [1], the inhibition at 10 µM was 0%. In assay [1], the inhibition at 30 µM came to 0%. The “IICR level (percentage of inhibition)” value in assay [2] (test compound 10 μmol), in assay [2] (test compound 30 μmol) and in assay [2] (test compound 100 μmol) was 0% in each case.

Turning to `CC(C)N(CCC(=O)c1ccncc1)Cc1ccccc1` [Example 107, 2-(N-isopropylbenzyl)aminoethyl-4-pyridylketone], the results for the inhibition at 10 µM in assay [1] and in assay [2] (test compound 10 μmol) were 0% and 30%, respectively. Further, the inhibition at 30 µM in assay [1] turned out to be 20%; in assay [2] (test compound 30 μmol), 90%. The inhibition at 100 µM in assay [1] came to 30%; in assay [2] (test compound 100 μmol), 90%. The 50% inhibitory concentration (IC50) in assay [1] was > 100 µM; in assay [2], < 10 µM.

Regarding `CC(C)N(CCO)CCC(=O)c1cc(Cl)sc1Cl` [Example 203, 2-(N-isopropyl-2-hydroxyethyl)aminomethyl-3-(2,5-dichlorothiophenyl)ketone], the inhibition at 10 µM in assay [1] came out at 50%; in assay [2] (test compound 10 μmol), 40%. The inhibition at 30 µM was 20% in assay [1] and 90% in assay [2] (test compound 30 μmol). The inhibition at 100 µM in assay [1] was found to be 10%; in assay [2] (test compound 100 μmol), 100%.

Take `O=C(CCNC(O)c1ccccc1)c1ccc(Br)s1` (stereo not shown) [Example 353, 2-(1-hydroxy-1-phenylmethyl)aminoethyl-5-bromo-2-thienylketone]: the values for the inhibition at 10 µM in assay [1] and in assay [2] (test compound 10 μmol) were 0% and 60%, respectively. Further, the inhibition at 30 µM in assay [1] and in assay [2] (test compound 30 μmol) was 0% each time. Besides, the inhibition at 100 µM amounted to 7% in assay [1] and 20% in assay [2] (test compound 100 μmol).

On to `CC(C)N(CCC(=O)c1cnccn1)Cc1ccccc1` [Example 117, 2-(N-isopropylbenzyl)aminoethyl-2-pyrazylketone], for which the inhibition at 10 µM in assay [1] was determined as 0%; in assay [2] (test compound 10 μmol), 20%. For the same compound, the inhibition at 30 µM in assay [1] was 0%; in assay [2] (test compound 30 μmol) it was 50%. For the same compound, the figures for the inhibition at 100 µM in assay [1] and in assay [2] (test compound 100 μmol) were 0% and 90%, respectively. Also, the 50% inhibitory concentration (IC50) in assay [1] was > 100 µM; in assay [2], 30 µM.

For the compound `CC(C)N(CCO)CCC(=O)N1CCCCCC1=O` [Example 201, 3-(N-hydroxyethylisopropyl)aminopropionylcaprolactam], the inhibition at 10 µM in assay [1] and in assay [2] (test compound 10 μmol) was 0% each time. In addition, the inhibition at 30 µM in assay [1] and in assay [2] (test compound 30 μmol) was 0% each time. For the same compound, the inhibition at 100 µM in assay [1] and in assay [2] (test compound 100 μmol) was 0% in each case.

In the case of `CC(C)N(CCO)CCC(=O)c1ccc(F)cc1` [Example 166, 2-(N-hydroxyethylisopropyl)aminoethyl-4-fluorophenylketone], the inhibition at 10 µM in assay [1] and in assay [2] (test compound 10 μmol) was 0% in each case. The inhibition at 30 µM in assay [1] and in assay [2] (test compound 30 μmol) was 0% in each case. Besides, the inhibition at 100 µM in assay [1] amounted to 20%; in assay [2] (test compound 100 μmol), 0%.

As for `Cc1cccc2cc(C(=O)CCN3CCCCC3)ccc12` [Example 81, 2-piperidinoethyl-5-methyl-2-naphthylketone], the inhibition at 10 µM in assay [1] and in assay [2] (test compound 10 μmol) was 0% in each case. Moreover, the inhibition at 30 µM in assay [1] and in assay [2] (test compound 30 μmol) was 10% each time. For the same compound, the results for the inhibition at 100 µM in assay [1] and in assay [2] (test compound 100 μmol) were 40% and 30%, respectively.

As to `CCCCN(CCO)CCC(=O)c1cnccn1` [Example 108, 2-(N-butyl-2-hydroxyethyl)aminoethyl-2-pyrazinylketone], the inhibition at 10 µM in assay [1] and in assay [2] (test compound 10 μmol) was 0% each time. Further, the values for the inhibition at 30 µM in assay [1] and in assay [2] (test compound 30 μmol) were 0% and 10%, respectively. Besides, the inhibition at 100 µM is 0% in assay [1] and 80% in assay [2] (test compound 100 μmol).

With `COC(=O)C(CSSCC(NCCC(=O)c1ccc(C#N)cc1)C(=O)OC)NCCC(=O)c1ccc(C#N)cc1` (stereo not shown) [Example 399, N,N-bis(4-cyanobenzoylethyl)cystinemethylester], the inhibition at 10 µM in assay [1] amounted to 20%; in assay [2] (test compound 10 μmol), 0%. Besides, the inhibition at 30 µM worked out at 40% in assay [1] and 0% in assay [2] (test compound 30 μmol). In addition, the results for the inhibition at 100 µM in assay [1] and in assay [2] (test compound 100 μmol) were 50% and 70%, respectively.

`CN(CCC(=O)c1ccc(Br)s1)Cc1ccccc1` [Example 326, 2-(N-benzylmethyl)aminoethyl-5-bromo-2-thienylketone]: the values for the inhibition at 10 µM in assay [1] and in assay [2] (test compound 10 μmol) were 10% and 40%, respectively. The inhibition at 30 µM worked out at 30% in assay [1] and 10% in assay [2] (test compound 30 μmol). Also, the values for the inhibition at 100 µM in assay [1] and in assay [2] (test compound 100 μmol) were 60% and 40%, respectively.

Take `CCCCN(CCC(=O)c1ccc(Cl)s1)Cc1ccccc1` [Example 374, 2-(N-butyl-N-benzyl)aminoethyl-5-chloro-2-thienylketone]: the inhibition at 10 µM in assay [1] and in assay [2] (test compound 10 μmol) was 0% each time. In addition, the values for the inhibition at 30 µM in assay [1] and in assay [2] (test compound 30 μmol) were 0% and 8%, respectively. Further, the inhibition at 100 µM in assay [1] is 53%; in assay [2] (test compound 100 μmol), 0%.

In the case of `CC(C)N(CCC(=O)c1ccc(-c2ccccc2)cc1)Cc1ccccc1` [Example 297, 2-(N-isopropylbenzyl)aminoethyl-4-biphenylketone], the inhibition at 10 µM came to 20% in assay [1] and 50% in assay [2] (test compound 10 μmol). Moreover, the inhibition at 30 µM in assay [1] and in assay [2] (test compound 30 μmol) was 50% each time. Besides, the inhibition at 100 µM in assay [1] came to 60%; in assay [2] (test compound 100 μmol), 90%.

As to `CC(C)N(CCC(=O)c1ccc(C#N)cc1)Cc1ccccc1` [Example 308, 2-(N-benzylisopropyl)aminoethyl-4-cyanophenylketone], the inhibition at 10 µM worked out at 0% in assay [1] and 90% in assay [2] (test compound 10 μmol). The inhibition at 30 µM in assay [1] stood at 0%; in assay [2] (test compound 30 μmol), 100%. Moreover, the figures for the inhibition at 100 µM in assay [1] and in assay [2] (test compound 100 μmol) were 10% and 95%, respectively.

Regarding `CC(CNC12CC3CC(CC(C3)C1)C2)C(=O)c1ccc(F)cc1` (stereo not shown) [Example 191], the inhibition at 10 µM in assay [1] and in assay [2] (test compound 10 μmol) was 0% in each case. Further, the inhibition at 30 µM in assay [1] and in assay [2] (test compound 30 μmol) was 0% throughout. Moreover, the inhibition at 100 µM in assay [1] and in assay [2] (test compound 100 μmol) was 0% each time.

Take `CCN(CCC(=O)c1nccs1)Cc1ccccc1` [Example 289, 2-(N-ethylbenzyl)aminoethyl-2-thiazolylketone]: the inhibition at 30 µM in assay [1] was 0%; in assay [2] (test compound 30 μmol), 80%. Besides, the inhibition at 100 µM in assay [1] is 10%; in assay [2] (test compound 100 μmol), 100%. Besides, the inhibition at 10 µM in assay [2] (test compound 10 μmol) was found to be 40%.

With `NCC(O)CNCCC(=O)c1ccc(Br)s1` (stereo not shown) [Example 343, 2-(N-2-hydroxy-3-aminopropyl)aminoethyl-5-bromo-2-thienylketone], the inhibition at 10 µM in assay [1] came out at 0%; in assay [2] (test compound 10 μmol), 50%. Also, the inhibition at 30 µM in assay [1] was 0%; in assay [2] (test compound 30 μmol), 70%. In addition, the inhibition at 100 µM in assay [1] turned out to be 26%; in assay [2] (test compound 100 μmol) it was 80%.
